Assay results from ChEMBL document CHEMBL4340555, “Synthesis and biological evaluation of 2-chloro-3-[(thiazol-2-yl)amino]-1,4-naphthoquinones” (Bioorg Med Chem Lett, 2019).
In brackets after ≈: the same amount, converted by molar mass. Activity calls are given as the source filed them. The rule behind the calls is not given here.

Columns and labels:
Pseudomonas aeruginosa [1] = experiment: Antimicrobial activity against Pseudomonas aeruginosa assessed as zone of inhibition at 100 uM/disk after 24 hrs by disk diffusion method; type: functional; conditions: for zone of inhibition at 100 µM: read-out: DIZ
HeLa = experiment: Cytotoxicity against human HeLa cells assessed as cell viability at 20 uM after 24 hrs by resazurin based fluorescence assay relative to control; type: functional; conditions: read-out: Activity
Pseudomonas aeruginosa [2] = experiment: Antimicrobial activity against Pseudomonas aeruginosa assessed as zone of inhibition at 1000 uM/disk after 24 hrs by disk diffusion method; type: functional; conditions: for zone of inhibition at 1000 µM: read-out: DIZ
[3] = test system: Mycobacterium tuberculosis; experiment: Antitubercular activity against Mycobacterium tuberculosis H37Rv assessed as reduction in bacterial growth after 7 days by green fluorescent protein microplate assay; type: functional; conditions: 168 h
Pseudomonas aeruginosa [4] = experiment: Antimicrobial activity against Pseudomonas aeruginosa assessed as zone of inhibition after 24 hrs by disk diffusion method; type: functional, organism-based
Pseudomonas aeruginosa [5] = experiment: Antimicrobial activity against Pseudomonas aeruginosa assessed as zone of inhibition at 10 uM/disk after 24 hrs by disk diffusion method; type: functional; conditions: for zone of inhibition at 10 µM: read-out: DIZ
Pseudomonas aeruginosa [6] = experiment: Antimicrobial activity against Pseudomonas aeruginosa assessed as zone of inhibition at 1 uM/disk after 24 hrs by disk diffusion method; type: functional
SH-SY5Y = experiment: Cytotoxicity against human SH-SY5Y assessed as reduction in cell viability after 48 hrs by xCELLigence RTCA SP analysis; type: functional, cell-based
[7] = Lipophilicity, log P of the compound; type: physicochemical; conditions: octanol/water
[8] = test system: Mycobacterium tuberculosis; experiment: Antitubercular activity against Mycobacterium tuberculosis H37Rv assessed as reduction in bacterial growth after 14 days by green fluorescent protein microplate assay; type: functional; conditions: 336 h
Plasmodium falciparum [9] = experiment: Antimalarial activity against Plasmodium falciparum 3D7 assessed as reduction in parasite viability at 20 uM by parasite lactate dehydrogenase released based colorimetric assay relative to control; type: functional
Pseudomonas aeruginosa [10] = experiment: Antimicrobial activity against Pseudomonas aeruginosa assessed as zone of inhibition at 2000 uM/disk after 24 hrs by disk diffusion method; type: functional; conditions: for zone of inhibition at 2000 µM: read-out: DIZ
Plasmodium falciparum [11] = experiment: Antimalarial activity against Plasmodium falciparum 3D7 assessed as reduction in parasite viability by parasite lactate dehydrogenase release based colorimetric assay; type: functional, organism-based
Pseudomonas aeruginosa [12] = experiment: Antimicrobial activity against Pseudomonas aeruginosa assessed as zone of inhibition at 25 ug/disk after 24 hrs by disk diffusion method; type: functional; conditions: read-out: DIZ
Plasmodium falciparum [13] = experiment: Stimulation of parasite proliferation of Plasmodium falciparum 3D7 assessed as increase in parasite viability at 20 uM by parasite lactate dehydrogenase released based colorimetric assay relative to control; type: organism-based
Pseudomonas aeruginosa [14] = experiment: Antimicrobial activity against Pseudomonas aeruginosa assessed as zone of inhibition at 10 ug/disk after 24 hrs by disk diffusion method; type: functional; conditions: read-out: DIZ

Row | Structure (SMILES) | zone of inhibition at 100 µM (Pseudomonas aeruginosa [1]) | viability at 20 µM (HeLa) | zone of inhibition at 1000 µM (Pseudomonas aeruginosa [2]) | MIC90 [3] | Activity (Pseudomonas aeruginosa [4]) | Activity (SH-SY5Y) | IC50 (SH-SY5Y) | logP [7] | MIC99 [8] | inhibition at 20 µM (Plasmodium falciparum [9]) | zone of inhibition at 2000 µM (Pseudomonas aeruginosa [10]) | diameter of the inhibition zone (DIZ) (Pseudomonas aeruginosa [1]) | diameter of the inhibition zone (DIZ) (Pseudomonas aeruginosa [2]) | diameter of the inhibition zone (DIZ) (Pseudomonas aeruginosa [5]) | diameter of the inhibition zone (DIZ) (Pseudomonas aeruginosa [6]) | diameter of the inhibition zone (DIZ) (Pseudomonas aeruginosa [10]) | further results
1 | O=C1C(Cl)=C(Nc2nc(-c3ccc(F)cc3)cs2)C(=O)c2ccccc21 | 11 mm | 75% | 15 mm | 9.37 µM (≈ 3.61 µg/mL) | Dose-dependent effect | Dose-dependent effect | 1.5 µM | < 5 | 10.4 µM (≈ 4 µg/mL) | 80 to 90% | 19.5 mm | – | – | – | – | – | zone of inhibition at 10 µM (Pseudomonas aeruginosa [5]): 8 mm; zone of inhibition at 1 µM (Pseudomonas aeruginosa [6]; read-out: DIZ): 5 mm; IC50 (Plasmodium falciparum [11]): 44.7 µM
2 | O=C1C(Cl)=C(Nc2nc(-c3ccc(Br)cc3)cs2)C(=O)c2ccccc21 | – | 55% | – | > 20 µM | – | Dose-dependent effect | – | < 5 | > 20 µM | 80 to 90% | – | inactive | inactive | inactive | inactive | inactive | IC50 (Plasmodium falciparum [11]): 50.6 µM
3 | CO[C@H]1/C=C/O[C@@]2(C)Oc3c(C)c(O)c4c(O)c(c(/C=N/N5CCN(C)CC5)c(O)c4c3C2=O)NC(=O)/C(C)=C\C=C\[C@H](C)[C@H](O)[C@@H](C)[C@@H](O)[C@@H](C)[C@H](OC(C)=O)[C@@H]1C [RIFAMPIN] | – | – | – | 0.0015 µM (≈ 0.00123 µg/mL) | – | – | – | – | 0.00167 µM (≈ 0.00137 µg/mL) | – | – | – | – | – | – | – | –
4 | CC1(C)S[C@@H]2[C@H](NC(=O)[C@H](N)c3ccccc3)C(=O)N2[C@H]1C(=O)O [AMPICILLIN] | – | – | – | – | – | – | – | – | – | – | – | – | – | – | – | – | zone of inhibition at 25 µg/disc (Pseudomonas aeruginosa [12]): 24.7 mm
5 | O=C(O)c1csc(NC2=C(Cl)C(=O)c3ccccc3C2=O)n1 | – | 75% | – | > 20 µM | – | Dose-dependent effect | > 100 µM | < 5 | > 20 µM | – | – | inactive | inactive | inactive | inactive | inactive | Activity (Plasmodium falciparum [13]): 15%
6 | O=C1C(Cl)=C(Nc2nc(-c3ccccc3)cs2)C(=O)c2ccccc21 | 9.1 mm | 80% | 11.4 mm | 9.19 µM (≈ 3.37 µg/mL) | Dose-dependent effect | Dose-dependent effect | 1.8 µM | < 5 | 10.2 µM (≈ 3.74 µg/mL) | 10% | 13.2 mm | – | – | – | inactive | – | zone of inhibition at 10 µM (Pseudomonas aeruginosa [5]): 5.3 mm
7 | CN[C@@H]1[C@H](O[C@H]2[C@H](O[C@H]3[C@H](O)[C@@H](O)[C@H](N=C(N)N)[C@@H](O)[C@@H]3N=C(N)N)O[C@@H](C)[C@]2(O)C=O)O[C@@H](CO)[C@H](O)[C@H]1O [STREPTOMYCIN] | – | – | – | – | – | – | – | – | – | – | – | – | – | – | – | – | zone of inhibition at 10 µg/disc (Pseudomonas aeruginosa [14]): 20 mm
8 | CCN(CC)CCCC(C)Nc1ccnc2cc(Cl)ccc12 (centres undefined) [CHLOROQUINE] | – | 3.6% | – | – | – | – | – | – | – | – | – | inactive | inactive | inactive | inactive | inactive | –
9 | CCOC(=O)c1csc(NC2=C(Cl)C(=O)c3ccccc3C2=O)n1 | – | 82% | – | 19.5 µM (≈ 7.07 µg/mL) | – | Dose-dependent effect | 31.1 µM | < 5 | > 20 µM | 40% | – | inactive | inactive | inactive | inactive | inactive | –
10 | O=C1C(Cl)=C(Nc2nc(-c3ccc([N+](=O)[O-])cc3)cs2)C(=O)c2ccccc21 | 7.2 mm | 80% | 11 mm | > 20 µM | Dose-dependent effect | Dose-dependent effect | – | < 5 | > 20 µM | 80 to 90% | 14.1 mm | – | – | inactive | inactive | – | IC50 (Plasmodium falciparum [11]): 20.3 µM
11 | O=C1C(Cl)=C(Nc2nc(-c3ccc(Cl)cc3)cs2)C(=O)c2ccccc21 | 7.6 mm | 80% | 9.7 mm | > 20 µM | Dose-dependent effect | Dose-dependent effect | 2.7 µM | < 5 | > 20 µM | 30% | 12 mm | – | – | inactive | inactive | – | –
